Source: EP2118065B1, “Substituted 1H-benz[de]isoquinoline-1,3-diones” (priority 2007, dated 2008)

Experiments:
[1] = system: Ehrlich ascites carcinoma (EAC); assay: In vivo anticancer activity: increase in median survival time; parameters: species or system Swiss albino male mice; conditions: 60 mg/kg i.p., 7 injns., days 1-7
[2] = system: COLO-205; assay: SRB in vitro cytotoxicity, human tumor cell line; type: cell-based; conditions: 10^-5 M, Colon: COLO-205, read-out: growth inhibition
Method: (§1) Compounds 3a-g were screened by sulforhodamine-B (SRB) semi-automated assay in a battery of cell lines. […] A., et. al. (1991); Feasibility high flux anticancer screen utilizing diverse panel of human tumor cell lines in culture. J Natl Cancer Inst. 83, 757-766]. Each compound was tested in triplicate sets of experiments at 10^-4 to 10^-6 M concentrations (Table 4).
(§2) A stock solution of 2 x 10^-2M was prepared in DMSO. The stock solutions were serially diluted to obtain working test solutions with complete growth medium (RPMI-1640 medium with 2mM glutamine, 100µg/ml streptomycin, pH 7.4, sterilized by filtration and supplemented with 10% fetal bovine serum and 100 units/ml penicillin before use) containing 50 µg/ml of gentamycin to obtain working test solutions. The working test solutions were not filtered/ sterilized but microbial contamination was controlled by addition of gentamycin in complete growth medium used for dilution of stock solutions to prepare working test solutions.
(§3) In vitro cytotoxicity against human cancer cell lines was determined^2 [Monk. A., et. al. (1991); Feasibility high flux anticancer screen utilizing diverse panel of human tumor cell lines in culture. J Natl Cancer Inst. 83, 757-766] using 96-well tissue culture plates. The cells were grown in tissue culture flasks in complete growth medium at 37°C in an atmosphere of 5% CO2 and 95% relative humidity in a carbon dioxide incubator. The cell suspension of required cell density (1-2 lakhs/ml) depending on the mass doubling time of cell lines was prepared in complete growth medium for determination of cytotoxicity. The aliquots of 100 µl of cell suspension were added to each well on a 96-well tissue culture plate. The blank wells contained complete medium in place of cell suspension. Simultaneously, control experiments with positive controls containing known anticancer agents were carried out. Cells were incubated for 24 hr.
(§4) The test materials (100 µl in each well) were added after 24-hours to the wells containing cell suspension and blank wells. The cells were allowed to grow in presence of test material by further incubating the plates for 48 hours. At the end of incubation period the cell growth was stopped by gently layering trichloroacetic acid (50% TCA, 50µl/well) on top of the medium in all the wells. The plates were incubated at 4°C for 1 hr. The plates were washed five times with distilled water to remove TCA, growth medium, low molecular weight metabolites, serum proteins etc. and air-dried.
(§5) The cell growth was measured^3 [Skehan, P, Storeng, R Scudiero, D, Monks, A, Mcmahon, J, Vistica, D, Warren, J.T., Bokesch, H., Kenney, S., Boyd, M.R. (1990). New colorimetric cytotoxicity assay for anti-cancer drug screening. J Natl Cancer Inst. 82: 1107-12] by staining with Sulphorhodamine B. Sulphorhodamine B (SRB, 0.4% in 1% acetic acid, 100 µl/well) was added to each well and plates were allowed to stand at room temperature for 30 minutes. The plates were washed with 1% acetic acid four times and then dried. Tris-HCl buffer (0.01 M, pH 10.5, 100 µl/well) was added to each well to solublise the dye. The plates were shaken gently for 10 minutes on a shaker and the optical density was recorded on ELISA reader at 540 nm. The cell growth was determined by subtracting mean OD value of respective blank from the mean OD value of experimental set. Percent growth in presence of test material was calculated considering the growth in absence of any test material as 100% and in turn percent growth inhibition in presence of test material was calculated. All the experiments were carried out in quadruplicate.

[3] = system: DU-145; assay: SRB in vitro cytotoxicity, human tumor cell line; type: cell-based; conditions: 10^-5 M, Prostate: DU-145, read-out: growth inhibition
Method: as §1, §2, §3, §4, §5

[4] = system: OVCAR-5; assay: SRB in vitro cytotoxicity, human tumor cell line; type: cell-based; conditions: 10^-5 M, Ovary: OVCAR-5, read-out: growth inhibition
Method: as §1, §2, §3, §4, §5

[5] = system: HCT-15; assay: SRB in vitro cytotoxicity, human tumor cell line; type: cell-based; conditions: 10^-5 M, Colon: HCT-15, read-out: growth inhibition
Method: as §1, §2, §3, §4, §5

[6] = system: HT-29; assay: SRB in vitro cytotoxicity, human tumor cell line; type: cell-based; conditions: 10^-5 M, Colon: HT-29, read-out: growth inhibition
Method: as §1, §2, §3, §4, §5

[7] = system: A549; assay: SRB in vitro cytotoxicity, human tumor cell line; type: cell-based; conditions: 10^-5 M, Lung: A549, read-out: growth inhibition
Method: as §1, §2, §3, §4, §5

[8] = system: SW-620; assay: SRB in vitro cytotoxicity, human tumor cell line; type: cell-based; conditions: 10^-5 M, Colon: SW-620, read-out: growth inhibition
Method: as §1, §2, §3, §4, §5

[9] = system: MCF-7; assay: SRB in vitro cytotoxicity, human tumor cell line; type: cell-based; conditions: MCF7, 10^-5 M, Breast: MCF-7, read-out: growth inhibition
Method: as §1, §2, §3, §4, §5

[10] = system: IMR-32; assay: SRB in vitro cytotoxicity, human tumor cell line; type: cell-based; conditions: 10^-5 M, Neuroblastoma: IMR-32, read-out: growth inhibition
Method: as §1, §2, §3, §4, §5

[11] = system: 502713; assay: SRB in vitro cytotoxicity, human tumor cell line; type: cell-based; conditions: 10^-5 M, Colon: 502713, read-out: growth inhibition
Method: as §1, §2, §3, §4, §5

[12] = system: PC-3; assay: SRB in vitro cytotoxicity, human tumor cell line; type: cell-based; conditions: 10^-5 M, Prostate: PC-3, read-out: growth inhibition
Method: as §1, §2, §3, §4, §5

[13] = system: SK-N-SH; assay: SRB in vitro cytotoxicity, human tumor cell line; type: cell-based; conditions: 10^-5 M, Neuroblastoma: SK-N-SH, read-out: growth inhibition
Method: as §1, §2, §3, §4, §5

[14] = system: Hep-2; assay: SRB in vitro cytotoxicity, human tumor cell line; type: cell-based; conditions: 10^-5 M, Liver: Hep-2, read-out: growth inhibition
Method: as §1, §2, §3, §4, §5

[15] = system: SKOV-3; assay: SRB in vitro cytotoxicity, human tumor cell line; type: cell-based; conditions: SK-OV-3, 10^-5 M, Ovarian: SKOV-3, read-out: growth inhibition
Method: as §1, §2, §3, §4, §5

[16] = system: U-937 lymphoma; assay: MTT in vitro cytotoxicity; conditions: Homo sapiens, U-937, 96 h, read-out: IC50 value Lymphoma U-937
[17] = system: caspase-3; assay: Caspase-3 colorimetric assay in MOLT-4 cells; type: cell-based, Human; conditions: 5 µg/ml, 12 hrs
Method: Caspase 3 activity was measured by using caspase-3 colorimetric Assay kit (R&D Systems USA). […] Cell lysates were mixed with 10µL of dithiothreitol (DTT) and 50µL reaction buffer (2X) containing 5 µL DEVD-pNA, a caspase-3 substrate, and incubated upto 24 hr at 37°C. Additional controls were included in this assay containing no cell lysate without substrate Enzyme-catalyzed release of pNA was monitored using a microplate reader at 405 nm (Fig. 2). Likewise, Caspase 6 activity was also measured using caspase-6 colorimetric Assay kit (R&D Systems USA). However, the enzyme and enzyme substrate (VEID-pNA) were different (Fig. 3). Treatment of the cells with Compound 3f induced caspase-3/6 activities. […] (Fig 2).

## O=C1c2cccc3c([N+](=O)[O-])ccc(c23)C(=O)N1CCCCl [Compound 3f, 6-Nitro-2-[3-(Chloropropyl)]-1H-benz[de]isoquinoline-1,3-dione]
[1]
  MST: 34.0 days
[2]
  inhibition at 10 µM: > 50%
[3]
  inhibition at 10 µM: > 50%
[4]
  inhibition at 10 µM: > 50%
[5]
  inhibition at 10 µM: > 50%
[6]
  inhibition at 10 µM: > 50%
[7]
  inhibition at 10 µM: ≤ 50%
[8]
  inhibition at 10 µM: > 50%
[9]
  inhibition at 10 µM: > 50%
[10]
  inhibition at 10 µM: > 50%
[11]
  inhibition at 10 µM: > 50%
[12]
  inhibition at 10 µM: > 50%
[13]
  inhibition at 10 µM: > 50%
[14]
  inhibition at 10 µM: > 50%
[15]
  inhibition at 10 µM: ≤ 50%
[16]
  IC50: 1950 nM
[17]
  Caspase-3 activity: maximum at 5 µg/ml at 12 hrs
